Data reported in PMC5011342, “A high throughput drug screening assay to identify compounds that promote oligodendrocyte differentiation using acutely dissociated and purified oligodendrocyte precursor cells” (BMC Research Notes, 2016).
Read-outs that look alike come from different tables or passages of the source.

Legend:
expanded OPCs = experiment: cells; details: for viability at 0.1 µM / viability at 1 µM / viability at 10 µM: Rattus norvegicus, 72 h
Description: Having established a consistent assay for measuring OL differentiation in vitro, the next step was to utilize this assay to assess the ability of a wide array of compounds to promote OL differentiation. Prior to library screening, we first established the maximum non-toxic dose of each compound in the library. […] Therefore, we added each compound in the NIH clinical collection (NCC) library to OPCs at 10, 1, and 0.1 µM concentrations. Three days later, we assessed viability of the treated cells by measuring AlamarBlue fluorescence, a measure of cell viability (see “Methods” section). […] Appropriately, we established three sets of screening concentrations for library compounds: non-toxic compounds were tested at 10 and 2 µM, slightly toxic compounds (only toxic at 10 µM) were tested at 2 and 0.4 µM, and very toxic compounds were tested at 0.4 and 0.08 µM.
OPCs were expanded in vitro by seeding into PDL-coated tissue culture flasks at 1000–2000 cells/cm^2 in differentiation media supplemented with 10 ng/ml PDGF-AA. Proliferating OPCs were fed every 2–3 days and supplemented with 2–3× concentration of PDGF as needed to prevent OPC differentiation. After 6–7 days of proliferation, OPCs were harvested by trypsinization, plated into PDL-coated 96-well Falcon plates and centrifuged at 200×g to facilitate cell attachment, survival, and even distribution of cells. Expanded OPCs were seeded in differentiation media at 10,000 cells/well and incubated for 2 h at 37 °C, 10 % CO2 prior to addition of compounds. The NCC library was diluted and added to cells at 10, 1, and 0.1 µM; each concentration was tested in quadruplicate. As a positive control for the induction of toxicity, 5 ng/ml tunicamycin was added to 8 wells in each plate. Three days later, a 1:10 dilution of alamarBlue® (AB) was added to each well and cells were incubated 4 h at 37 °C, 10 % CO2. AB fluorescence was measured using a PerkinElmer Victor II fluorescence microplate reader (PerkinElmer, Waltham, MA) with 560 nm excitation/590 nm emission filters. For library screening, the highest concentration of each compound was adjusted to a minimally toxic concentration based on this toxicity data. Compounds were additionally tested at a second concentration that was 1/5th of the top concentration. The final concentration of DMSO in each well was 0.1 %.

[1] = system: acutely dissociated and purified rat OPCs; experiment: Acute OL differentiation assay (MBP expression/cell, immunofluorescent image quantification); type: cell-based; details: sheet "All OLga data"; for activation at 2 µM / activation at 10 µM: Rattus norvegicus
Description: In order to identify compounds with the potential to promote OL differentiation in vivo and thereby enhance remyelination, we first wanted to establish an in vitro assay system that would closely mimic conditions in vivo. To do this, we started by using OPCs acutely isolated from postnatal day 6–7 (P6–7) rat brains by O4 immunopanning. […] OPCs were plated directly onto a biological substrate (PDL/laminin) in 96-well view plates at moderate density to allow for sufficient room to expand processes during differentiation. We plated cells in serum-free medium lacking OPC mitogens (no PDGF or FGF) to allow a basal level of OL differentiation to commence, and as a positive control added thyroid hormone (T3, 40 ng/ml) to accelerate differentiation (Fig. 1, flow scheme).
Fig. 1 Flow scheme of the acute OL differentiation assay. a Purified oligodendrocyte precursor cells (OPCs) were cultured from P7 rat cortex and plated into PDL/laminin pre-coated 96-well plates. b One hour later test compounds were added. c OPC cultures with compound were maintained in culture for an additional 4 days. d On the 5th day with compound, cells were fixed and immunostained with anti-MBP antibodies and DAPI. e Images were acquired with automated fluorescence microscopy and scored phenotypically for OL differentiation (see “Methods” section)
To quantify the extent of OL differentiation occurring in treatment conditions, we measured the overall amount of MBP expression/cell (see “Methods” section). Figure 2a depicts the mask created over MBP staining under which the MBP expression was quantified. […]
All animal work was carried out in strict accordance with the recommendations in the Guide for the Care and Use of Laboratory Animals of the National Institutes of Health. The protocol was approved by the Institutional Use and Care and Use Committee at the Molecular Medicine Research Institute (Sunnyvale, CA). Animals used for OPC isolation in these studies were euthanized by decapitation. OPCs from brains of P6-P7 Sprague–Dawley rat pups (Charles River, Wilmington, MA, USA) were enriched by immunopanning as previously described (Dugas et al. 2006). Briefly, single cell suspensions were obtained from papain-digested neonatal brains and depleted of mature glial cells by successive panning with RAN-2- and GalC-coated plates, followed by enrichment for OPCs using O4-coated plates. OPCs were plated in differentiation media (DMEM, 100 U/ml Penicillin/100 µg/ml streptomycin, 2 mM L-glutamine, 1 mM Na pyruvate, 5 µg/ml insulin, 5 µg/ml N-acetyl-L-cysteine, 1× trace elements B,10 ng/ml d-Biotin, 100 µg/ml BSA, 100 µg/ml apo-transferrin, 16 µg/ml putrescine, 60 ng/ml progesterone, 40 ng/ml sodium selenite 5 ng/ml forskolin, 10 ng/ml CNTF, 1 ng/ml NT-3).
Acutely enriched OPCs were plated in differentiation media at 5000 cells/well into PDL/laminin coated 96-well view plates and centrifuged at 200×g to facilitate cell attachment, survival, and even distribution of OPCs. OPCs were pre-incubated for 1–2 h at 37 °C in 10 % CO2, followed by the addition of test compounds in quadruplicate. Controls were added in eight replicate wells, negative control = 0.1 % DMSO; positive control = 40 ng/ml T3. The day of OPC plating was considered DIV0. On DIV4, cells were fixed, immunostained for myelin basic protein (MBP) expression, imaged and quantified as described below.

[2] = alamarBlue viability, NCC library compound at 0.1 µM, sheet "All Tox data"
[3] = alamarBlue viability, NCC library compound at 1 µM, sheet "All Tox data"
[4] = alamarBlue viability, NCC library compound at 10 µM, sheet "All Tox data"
[5] = read-out: 0.1 µM (% DMSO), alamarBlue viability, NCC library compound at 0.1 µM, sheet "All Tox data"
[6] = read-out: 1 µM (% DMSO), alamarBlue viability, NCC library compound at 1 µM, sheet "All Tox data"
[7] = read-out: 10 µM (% DMSO), alamarBlue viability, NCC library compound at 10 µM, sheet "All Tox data"
[8] = 2 uM test compound, relative to quetiapine, read-out: OL differentiation, 2 uM (% Quet)
[9] = 10 uM test compound, relative to quetiapine, read-out: OL differentiation, 10 uM (% Quet)
[10] = test compound at 2 uM, NCC library screen, relative to quetiapine, read-out: 2 uM (% Quet)
[11] = test compound at 10 uM, NCC library screen, relative to quetiapine, read-out: 10 uM (% Quet)
[12] = alamarBlue viability of expanded OPCs, compound at 0.1 µM, relative to DMSO control
[13] = alamarBlue viability of expanded OPCs, compound at 1 µM, relative to DMSO control
[14] = alamarBlue viability of expanded OPCs, compound at 10 µM, relative to DMSO control

## CCCCCCCCCOc1ccc2[nH]cc(CCN)c2c1 [5-Nonyloxytryptamine]
Expanded OPCs; [2]
  0.1 µM (% DMSO): 59.8 % DMSO
Expanded OPCs; [3]
  1 µM (% DMSO): 9.3 % DMSO
Expanded OPCs; [4]
  10 µM (% DMSO): 8.5 % DMSO
[1]; test compound at 0.08 uM, NCC library screen, relative to quetiapine
  0.08 uM (% Quet): -24.6 % Quet
[1]; test compound at 0.4 uM, NCC library screen, relative to quetiapine
  0.4 uM (% Quet): -339.9 % Quet

## Fc1cncnc1 [5-fluoropyrimidine]
Expanded OPCs; [5]
  viability at 0.1 µM: 89.9%
Expanded OPCs; [6]
  viability at 1 µM: 85.6%
Expanded OPCs; [7]
  viability at 10 µM: 80.4%
[1]; [8]
  activation at 2 µM: -16.3%
[1]; [9]
  activation at 10 µM: -9.2%

## Nc1ccc2cn[nH]c2c1 [6-Aminoindazole]
Expanded OPCs; [2]
  0.1 µM (% DMSO): 85.3 % DMSO
Expanded OPCs; [3]
  1 µM (% DMSO): 87.5 % DMSO
Expanded OPCs; [4]
  10 µM (% DMSO): 73.6 % DMSO
[1]; test compound at 2 uM, NCC library screen, relative to quetiapine
  2 uM (% Quet): -23.3 % Quet
[1]; test compound at 10 uM, NCC library screen, relative to quetiapine
  10 uM (% Quet): -40.9 % Quet

## O=[N+]([O-])c1cccc2cn[nH]c12 [7-Nitroindazole]
Expanded OPCs; [5]
  viability at 0.1 µM: 84.2%
Expanded OPCs; [6]
  viability at 1 µM: 88.9%
Expanded OPCs; [7]
  viability at 10 µM: 89.1%
[1]; [10]
  activation at 2 µM: -7.1%
[1]; [11]
  activation at 10 µM: 5.7%

## CCCCC/C=C\C/C=C\C/C=C\C/C=C\CCCC(=O)Nc1ccc(O)cc1 [AM 404]
Expanded OPCs; alamarBlue viability of expanded OPCs, compound at 0.1 µM, sheet All Tox data
  0.1 µM (% DMSO): 87.9 % DMSO
Expanded OPCs; alamarBlue viability of expanded OPCs, compound at 1 µM, sheet All Tox data
  1 µM (% DMSO): 33.1 % DMSO
Expanded OPCs; alamarBlue viability of expanded OPCs, compound at 10 µM, sheet All Tox data
  10 µM (% DMSO): 11.4 % DMSO
[1]; 0.08 uM test compound, relative to quetiapine
  OL differentiation, 0.08 uM (% Quet): -17.8 % Quet
[1]; 0.4 uM test compound, relative to quetiapine
  OL differentiation, 0.4 uM (% Quet): -184.2 % Quet

## C[C@H]1O[C@H](O[C@H]2[C@H](O)[C@@H](O)[C@@H](O[C@H]3[C@H](O)[C@@H](O)C(O)O[C@@H]3CO)O[C@@H]2CO)[C@H](O)[C@@H](O)[C@@H]1N[C@H]1C=C(CO)[C@@H](O)[C@H](O)[C@H]1O (stereo partly shown) [Acarbose]
Expanded OPCs; read-out: 0.1 µM (% DMSO), alamarBlue viability of expanded OPCs, compound at 0.1 µM, sheet All Tox data
  viability at 0.1 µM: 88.8%
Expanded OPCs; read-out: 1 µM (% DMSO), alamarBlue viability of expanded OPCs, compound at 1 µM, sheet All Tox data
  viability at 1 µM: 92%
Expanded OPCs; read-out: 10 µM (% DMSO), alamarBlue viability of expanded OPCs, compound at 10 µM, sheet All Tox data
  viability at 10 µM: 93.2%
[1]; [8]
  activation at 2 µM: 17.5%
[1]; [9]
  activation at 10 µM: -6.6%

## CCCC(=O)Nc1ccc(OCC(O)CNC(C)C)c(C(C)=O)c1 (stereo not shown) [Acebutolol]
Expanded OPCs; [12]
  0.1 µM (% DMSO): 94.3 % DMSO
Expanded OPCs; [13]
  1 µM (% DMSO): 111.2 % DMSO
Expanded OPCs; [14]
  10 µM (% DMSO): 112.7 % DMSO
[1]; test compound at 2 uM, MBP expression relative to quetiapine, NCC library screen, read-out: 2 uM (% Quet)
  activation at 2 µM: 7.8%
[1]; test compound at 10 uM, MBP expression relative to quetiapine, NCC library screen, read-out: 10 uM (% Quet)
  activation at 10 µM: -5.4%

## CC(=O)Nc1nnc(S(N)(=O)=O)s1 [Acetazolamide]
Expanded OPCs; [12]
  0.1 µM (% DMSO): 89.2 % DMSO
Expanded OPCs; [13]
  1 µM (% DMSO): 90.6 % DMSO
Expanded OPCs; [14]
  10 µM (% DMSO): 87.5 % DMSO
[1]; [10]
  activation at 2 µM: -8.7%
[1]; [11]
  activation at 10 µM: -43.8%
